Measurements from PubChem BioAssay AID256 (DTP/NCI, 2004).
Toxic doses and inconclusive results are not listed. Rule for the calls: active = survival T/C of 150% or more; inactive = T/C below 125% in these data.

Test system: CD2F1 mice, L1210 leukemia ip, survival T/C
Assay: NCI In Vivo Anticancer Drug Screen. Data for tumor model L1210 Leukemia (intraperitoneal) in CD2F1 (CDF1) mice
Conditions: higher = longer survival
Description: The antitumor activity of compounds was measured in mice bearing transplantable tumors. Survival or tumor size were measured and the results are expressed as the measurement made in the treated group (T) divided by the measurement made in the vehicle treated control group (C). The tumor model used in this assay is L1210 Leukemia (intraperitoneal) in CD2F1 (CDF1) mice

[1] = endpoint: mean survival time, dose: 100.0 mg/kg/injection, schedule: Q04DX003 (ip), vehicle: saline with Tween-80
[2] = endpoint: mean survival time, dose: 200.0 mg/kg/injection, schedule: Q04DX003 (ip), vehicle: saline with Tween-80
[3] = endpoint: mean survival time, dose: 12.5 mg/kg/injection, schedule: Q04DX003 (ip), vehicle: saline
[4] = endpoint: mean survival time, dose: 25.0 mg/kg/injection, schedule: Q04DX003 (ip), vehicle: saline
[5] = endpoint: mean survival time, dose: 100.0 mg/kg/injection, schedule: Q01DX009 (ip), vehicle: saline sonified
[6] = endpoint: mean survival time, dose: 200.0 mg/kg/injection, schedule: Q01DX009 (ip), vehicle: saline sonified
[7] = endpoint: mean survival time, dose: 400.0 mg/kg/injection, schedule: Q04DX003 (ip), vehicle: saline with Tween-80

Measured: T/C

Cc1ccc(S(=O)(=O)N=S(C)(C)=O)cc1
inactive: endpoint: mean survival time, dose: 100.0 mg/kg/injection, schedule: Q04DX002 (ip), vehicle: saline with Tween-80 98 % of control | endpoint: mean survival time, dose: 200.0 mg/kg/injection, schedule: Q04DX002 (ip), vehicle: saline with Tween-80 94 % of control | endpoint: mean survival time, dose: 400.0 mg/kg/injection, schedule: Q04DX002 (ip), vehicle: saline with Tween-80 94 % of control

CN=C(N)N/N=C(\C)c1ccc2oc3ccc(/C(C)=N/NC(N)=NC)cc3c2c1
inactive: endpoint: median survival time, dose: 4.7 mg/kg/injection, schedule: Q01DX009 (ip), vehicle: saline with Tween-80 123 % of control | endpoint: median survival time, dose: 6.25 mg/kg/injection, schedule: Q01DX009 (ip), vehicle: saline with Tween-80 117 % of control | endpoint: median survival time, dose: 9.38 mg/kg/injection, schedule: Q01DX009 (ip), vehicle: saline with Tween-80 121 % of control | endpoint: median survival time, dose: 12.5 mg/kg/injection, schedule: Q01DX009 (ip), vehicle: saline with Tween-80 123 % of control | endpoint: median survival time, dose: 50.0 mg/kg/injection, schedule: Q01DX009 (ip), vehicle: saline with Tween-80 122 % of control | endpoint: median survival time, dose: 75.0 mg/kg/injection, schedule: Q01DX009 (ip), vehicle: saline with Tween-80 90 % of control

CSc1nc(C)cc(Cl)n1
inactive: endpoint: mean survival time, dose: 50.0 mg/kg/injection, schedule: Q01DX009 (ip), vehicle: saline with Tween-80 94 % of control | endpoint: mean survival time, dose: 100.0 mg/kg/injection, schedule: Q01DX009 (ip), vehicle: saline with Tween-80 92 % of control | [1] 103 % of control | endpoint: mean survival time, dose: 200.0 mg/kg/injection, schedule: Q01DX009 (ip), vehicle: saline with Tween-80 95 % of control | [2] 97 % of control

O=C1/C(=C\c2ccccc2)C2CCC(C2)/C1=C\c1ccccc1
inactive: endpoint: mean survival time, dose: 100.0 mg/kg/injection, schedule: Q01DX001 (ip), vehicle: saline with Tween-80 91 % of control | endpoint: mean survival time, dose: 200.0 mg/kg/injection, schedule: Q01DX001 (ip), vehicle: saline with Tween-80 88 % of control | endpoint: mean survival time, dose: 400.0 mg/kg/injection, schedule: Q01DX001 (ip), vehicle: saline with Tween-80 97 % of control

[Cl][Pt+2][Cl].[NH-]c1ccccc1-c1ccccc1[NH-]
inactive: endpoint: mean survival time, dose: 3.13 mg/kg/injection, schedule: Q04DX003 (ip), vehicle: saline 104 % of control | endpoint: mean survival time, dose: 6.25 mg/kg/injection, schedule: Q04DX003 (ip), vehicle: saline 109 % of control | [3] 120 % of control | [4] 113 % of control | endpoint: mean survival time, dose: 50.0 mg/kg/injection, schedule: Q04DX003 (ip), vehicle: saline 109 % of control | endpoint: mean survival time, dose: 100.0 mg/kg/injection, schedule: Q04DX003 (ip), vehicle: saline 94 % of control

COC(=O)CSc1n[nH]c(=O)[nH]c1=O
inactive: endpoint: mean survival time, dose: 12.5 mg/kg/injection, schedule: Q01DX005 (ip), vehicle: distilled water + Tween-80 97 % of control | endpoint: mean survival time, dose: 25.0 mg/kg/injection, schedule: Q01DX005 (ip), vehicle: distilled water + Tween-80 100 % of control | endpoint: mean survival time, dose: 50.0 mg/kg/injection, schedule: Q01DX005 (ip), vehicle: distilled water + Tween-80 103 % of control | endpoint: mean survival time, dose: 100.0 mg/kg/injection, schedule: Q01DX005 (ip), vehicle: distilled water + Tween-80 94 % of control | endpoint: mean survival time, dose: 200.0 mg/kg/injection, schedule: Q01DX005 (ip), vehicle: distilled water + Tween-80 92 % of control

Cc1nc(Cl)cc(Cl)c1C
inactive: endpoint: mean survival time, dose: 178.0 mg/kg/injection, schedule: Q04DX003 (ip), vehicle: other 100 % of control | endpoint: mean survival time, dose: 266.0 mg/kg/injection, schedule: Q04DX003 (ip), vehicle: other 100 % of control | endpoint: mean survival time, dose: 400.0 mg/kg/injection, schedule: Q04DX003 (ip), vehicle: other 95 % of control | endpoint: mean survival time, dose: 600.0 mg/kg/injection, schedule: Q04DX003 (ip), vehicle: other 105 % of control

CC(C)C(C)/C=C\C(C)C1CCC2C3=CCC4CC(=O)CCC4(C)C3CCC21C (stereo not given)
inactive: endpoint: mean survival time, dose: 25.0 mg/kg/injection, schedule: Q01DX001 (ip), vehicle: Klucel (hydroxypropylcellulose) (HPC) 103 % of control | endpoint: mean survival time, dose: 50.0 mg/kg/injection, schedule: Q01DX001 (ip), vehicle: Klucel (hydroxypropylcellulose) (HPC) 96 % of control | endpoint: mean survival time, dose: 100.0 mg/kg/injection, schedule: Q01DX001 (ip), vehicle: Klucel (hydroxypropylcellulose) (HPC) 103 % of control

C/C=C(\C)C(=O)O[C@@H]1c2cc3c(cc2-c2c(cc(OC)c(OC)c2OC)[C@@H]2C(=O)OC[C@@H]12)OCO3
inactive: endpoint: mean survival time, dose: 1.25 mg/kg/injection, schedule: Q01DX009 (ip), vehicle: Klucel (hydroxypropylcellulose) (HPC) 112 % of control | endpoint: mean survival time, dose: 2.5 mg/kg/injection, schedule: Q01DX009 (ip), vehicle: Klucel (hydroxypropylcellulose) (HPC) 106 % of control | endpoint: mean survival time, dose: 5.0 mg/kg/injection, schedule: Q01DX009 (ip), vehicle: Klucel (hydroxypropylcellulose) (HPC) 106 % of control | endpoint: mean survival time, dose: 10.0 mg/kg/injection, schedule: Q01DX009 (ip), vehicle: Klucel (hydroxypropylcellulose) (HPC) 95 % of control

CSc1nc(NC2OC(CO)C(O)C(O)C2O)c(I)c(=O)[nH]1 (stereo not given)
inactive: endpoint: median survival time, dose: 12.5 mg/kg/injection, schedule: Q01DX005 (ip), vehicle: saline with Tween-80 100 % of control | endpoint: median survival time, dose: 25.0 mg/kg/injection, schedule: Q01DX005 (ip), vehicle: saline with Tween-80 98 % of control | endpoint: median survival time, dose: 50.0 mg/kg/injection, schedule: Q01DX005 (ip), vehicle: saline with Tween-80 100 % of control | endpoint: median survival time, dose: 100.0 mg/kg/injection, schedule: Q01DX005 (ip), vehicle: saline with Tween-80 100 % of control | endpoint: median survival time, dose: 200.0 mg/kg/injection, schedule: Q01DX005 (ip), vehicle: saline with Tween-80 102 % of control

Cc1ccc(S(=O)(=O)F)c(Cl)c1
inactive: endpoint: mean survival time, dose: 50.0 mg/kg/injection, schedule: Q01DX009 (ip), vehicle: saline sonified 97 % of control | [5] 97 % of control | [6] 95 % of control

N=C(N)SCCc1ccccc1
inactive: endpoint: mean survival time, dose: 12.5 mg/kg/injection, schedule: Q01DX001 (ip), vehicle: saline 95 % of control | endpoint: mean survival time, dose: 25.0 mg/kg/injection, schedule: Q01DX001 (ip), vehicle: saline 100 % of control | endpoint: mean survival time, dose: 50.0 mg/kg/injection, schedule: Q01DX001 (ip), vehicle: saline 103 % of control

COc1ccc(/C=C\[N+](=O)[O-])cc1OC
inactive: endpoint: mean survival time, dose: 100.0 mg/kg/injection, schedule: Q04DX003 (ip), vehicle: Klucel (hydroxypropylcellulose) (HPC) 101 % of control | endpoint: mean survival time, dose: 200.0 mg/kg/injection, schedule: Q04DX003 (ip), vehicle: Klucel (hydroxypropylcellulose) (HPC) 104 % of control | endpoint: mean survival time, dose: 400.0 mg/kg/injection, schedule: Q04DX003 (ip), vehicle: Klucel (hydroxypropylcellulose) (HPC) 101 % of control

NC(=O)/C=C1\NC(=O)CS1
inactive: [5] 97 % of control | [1] 100 % of control | [6] 103 % of control | [2] 91 % of control | endpoint: mean survival time, dose: 400.0 mg/kg/injection, schedule: Q01DX009 (ip), vehicle: saline sonified 88 % of control | [7] 102 % of control

CCOC(=O)NC(=S)n1ncnc1N
inactive: [3] 97 % of control | [4] 102 % of control

c1cncc(C2OCCO2)c1
inactive: endpoint: mean survival time, dose: 100.0 mg/kg/injection, schedule: Q01DX009 (ip), vehicle: saline 105 % of control | endpoint: mean survival time, dose: 200.0 mg/kg/injection, schedule: Q01DX009 (ip), vehicle: saline 100 % of control | endpoint: mean survival time, dose: 400.0 mg/kg/injection, schedule: Q01DX009 (ip), vehicle: saline 100 % of control

COC1=CC=C2C3Cc4ccc(OC)c(O)c4C2(C1)CN3C (stereo not given)
inactive: endpoint: mean survival time, dose: 25.0 mg/kg/injection, schedule: Q01DX009 (ip), vehicle: Klucel (hydroxypropylcellulose) (HPC) 102 % of control | endpoint: mean survival time, dose: 50.0 mg/kg/injection, schedule: Q01DX009 (ip), vehicle: Klucel (hydroxypropylcellulose) (HPC) 104 % of control | endpoint: mean survival time, dose: 100.0 mg/kg/injection, schedule: Q01DX009 (ip), vehicle: Klucel (hydroxypropylcellulose) (HPC) 103 % of control

CCCCCCCCCCC(=O)CC
inactive: [1] 100 % of control | [2] 102 % of control | [7] 98 % of control

O=C(CC(CC(=O)C(c1ccccc1)c1ccccc1)c1ccccc1)C(c1ccccc1)c1ccccc1
inactive: endpoint: mean survival time, dose: 12.5 mg/kg/injection, schedule: Q04DX002 (ip), vehicle: saline with Tween-80 93 % of control | endpoint: mean survival time, dose: 25.0 mg/kg/injection, schedule: Q04DX002 (ip), vehicle: saline with Tween-80 90 % of control | [2] 86 % of control | [7] 86 % of control

COc1ccc2ccccc2c1/C=N/N1CCCCC1
inactive: [1] 102 % of control | [2] 102 % of control | [7] 96 % of control

CC(=O)OCC(=O)[C@@]1(O)CC[C@H]2[C@@H]3CCC4=CC(=O)C=C[C@]4(C)[C@H]3C(=O)C[C@@]21C
inactive: endpoint: mean survival time, dose: 12.5 mg/kg/injection, schedule: Q04DX003 (ip), vehicle: Klucel (hydroxypropylcellulose) (HPC) 101 % of control | endpoint: mean survival time, dose: 25.0 mg/kg/injection, schedule: Q04DX003 (ip), vehicle: Klucel (hydroxypropylcellulose) (HPC) 109 % of control | endpoint: mean survival time, dose: 50.0 mg/kg/injection, schedule: Q04DX003 (ip), vehicle: Klucel (hydroxypropylcellulose) (HPC) 100 % of control
